Measured values: patent publication US10899737B2, “Piperazine carbamates and methods of making and using same” (Lundbeck La Jolla Research Center, Inc., priority 2016, dated 2021)

Legend:
MAGL [1] = molecular target: T1, MAGL (Mus musculus, UniProt O35678); experiment: In vitro competitive activity-based protein profiling (mouse), MAGL; type: biochemical; details: 1 μM inhibitor, mouse brain membrane fraction or cell lysates; read-out: MAGL % inh. 1 μM (mouse)
T1 construct: Proteomes (mouse brain membrane fraction or cell lysates); from tissue; host or cells: mouse brain membrane fraction or cell lysates
T1 sequence (O35678 1-303): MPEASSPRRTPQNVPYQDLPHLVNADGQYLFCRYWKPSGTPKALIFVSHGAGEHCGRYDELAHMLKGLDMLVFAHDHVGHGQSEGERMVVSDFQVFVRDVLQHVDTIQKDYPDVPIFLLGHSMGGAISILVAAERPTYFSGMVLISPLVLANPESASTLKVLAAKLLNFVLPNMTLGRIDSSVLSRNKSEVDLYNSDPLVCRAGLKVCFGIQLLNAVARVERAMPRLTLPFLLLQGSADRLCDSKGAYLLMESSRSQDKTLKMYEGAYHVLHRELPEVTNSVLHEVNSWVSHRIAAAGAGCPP
Outline: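 Mouse brain membrane fraction or cell lysate proteomes (50 μL, 1.0 mg/mL total protein) were preincubated with inhibitors at varying concentrations for 30 min at 37° C. FP-Rh (1.0 μL, 50 μM in DMSO) was then added for a further 30 min at 37° C. Samples were quenched with 4× SDS loading buffer and resolved by SDS-PAGE. MAGL activity was quantified from fluorescent gel band intensity using ImageJ 1.49 k.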

MAGL [2] = molecular target: T2, MAGL (Homo sapiens, UniProt Q99685); experiment: In vitro competitive activity-based protein profiling (human), MAGL; type: biochemical
T2 construct: Proteomes (human prefrontal cortex or cell membrane fractions); from tissue
T2 sequence (Q99685 1-303): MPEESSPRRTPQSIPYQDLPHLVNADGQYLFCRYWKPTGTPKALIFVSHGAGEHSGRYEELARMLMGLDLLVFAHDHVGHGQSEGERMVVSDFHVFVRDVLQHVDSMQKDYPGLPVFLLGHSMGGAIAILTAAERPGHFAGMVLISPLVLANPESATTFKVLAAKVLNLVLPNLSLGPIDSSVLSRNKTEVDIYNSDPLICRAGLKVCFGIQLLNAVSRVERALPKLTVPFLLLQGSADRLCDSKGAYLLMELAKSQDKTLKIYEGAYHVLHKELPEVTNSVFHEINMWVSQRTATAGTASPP
Outline: (§1)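 Human prefrontal cortex or cell membrane proteomes (1.0-2.0 mg/mL protein) preincubated 30 min at 37° C with inhibitor, then labeled 30 min RT with FP-Rh or JW912 probe. After SDS-PAGE, activity taken from fluorescent band intensity for each enzyme.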

MAGL [3] = molecular target: T1, MAGL; experiment: Mouse brain proteomes from inhibitor treated mice, MAGL inhibition; type: in vivo; details: 5 mg/kg oral gavage, C57Bl/6J mouse brain, 4 h following administration; read-out: MAGL % inh. 5 mg/kg (mouse)
Description: Preparation of Mouse Brain Proteomes from Inhibitor Treated Mice.
Inhibitors were administered to wild-type C57Bl/6J by oral gavage in a vehicle of polyethylene glycol. Each animal was sacrificed 4 h following administration and brain proteomes were prepared and analyzed according to previously established methods (See Niphakis, M. J., et al. (2011) ACS Chem. Neurosci. and Long, J. Z., et al. Nat. Chem. Biol. 5:37-44).

ABHD6 [4] = molecular target: T3, ABHD6 (Homo sapiens, UniProt Q9BV23); experiment: In vitro competitive activity-based protein profiling (human), ABHD6; type: biochemical; details: human PC3
T3 construct: Proteomes (human prefrontal cortex or cell membrane fractions); endogenous in cells; human prefrontal cortex
T3 sequence (Q9BV23 1-337): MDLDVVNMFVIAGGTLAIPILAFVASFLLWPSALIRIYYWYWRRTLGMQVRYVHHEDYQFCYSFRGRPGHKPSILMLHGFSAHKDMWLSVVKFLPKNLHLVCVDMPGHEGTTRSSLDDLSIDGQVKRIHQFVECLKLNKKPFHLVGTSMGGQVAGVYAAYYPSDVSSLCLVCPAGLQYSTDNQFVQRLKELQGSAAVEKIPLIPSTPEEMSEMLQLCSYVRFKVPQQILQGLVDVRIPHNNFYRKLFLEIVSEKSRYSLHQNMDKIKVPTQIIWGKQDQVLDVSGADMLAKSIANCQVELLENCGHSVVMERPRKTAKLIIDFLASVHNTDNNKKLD
Outline: as §1

ABHD6 [5] = molecular target: T4, ABHD6 (Mus musculus, UniProt Q8R2Y0); experiment: In vitro competitive activity-based protein profiling (mouse), ABHD6; type: biochemical; details: 1 μM inhibitor, mouse brain membrane fraction or cell lysates; read-out: ABHD6 % inh. 1 μM (mouse)
T4 construct: Proteomes (mouse brain membrane fraction or cell lysates); from tissue; host or cells: mouse brain membrane fraction or cell lysates
T4 sequence (Q8R2Y0 1-336): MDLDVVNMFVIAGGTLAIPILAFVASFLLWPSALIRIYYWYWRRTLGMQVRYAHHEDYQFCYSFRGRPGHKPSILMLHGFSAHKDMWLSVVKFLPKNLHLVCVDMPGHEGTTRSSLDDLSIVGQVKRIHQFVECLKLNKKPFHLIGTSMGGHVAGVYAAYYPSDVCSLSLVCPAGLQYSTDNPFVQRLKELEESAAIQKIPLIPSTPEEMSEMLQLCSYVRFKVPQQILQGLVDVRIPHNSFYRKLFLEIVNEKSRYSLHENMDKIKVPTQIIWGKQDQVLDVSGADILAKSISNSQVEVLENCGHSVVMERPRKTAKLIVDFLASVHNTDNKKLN
Outline: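 Mouse brain membrane proteome or cell lysate (1.0 mg/mL protein) preincubated 30 min at 37 °C with inhibitor, then labelled 30 min at 37 °C with FP-rhodamine probe. Remaining MAGL and ABHD6 activity quantified by in-gel fluorescence band intensity after SDS-PAGE; values are % inhibition at 1 μM.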

Q: How did the inhibition at 1 µM (MAGL [1]) turn out when `O=C(O)C1CCN(c2cc(S(F)(F)(F)(F)F)ccc2CN2CCN(C(=O)OC(C(F)(F)F)C(F)(F)F)CC2)CC1` [Example 78, 1-(2-((4-(((1,1,1,3,3,3-hexafluoropropan-2-yl)oxy)carbonyl)piperazin-1-yl)methyl)-5-(pentafluoro-16-sulfaneyl)phenyl)piperidine-4-carboxylic acid] was run?
A: The inhibition at 1 µM was no less than 75%.

Q: What about the inhibition at 1 µM (MAGL [2]; 1 μM inhibitor, human proteome, 30 min preincubation at 37° C, read-out: MAGL % inh. 1 μM (human)) of the same compound?
A: The inhibition at 1 µM was no less than 75%.

Q: And the IC50 (MAGL [2]; human PC3)?
A: The IC50 was no more than 0.1 µM.

Q: And the inhibition at 5 mg/kg (MAGL [3])?
A: The inhibition at 5 mg/kg was no less than 75%.

Q: And the IC50 (ABHD6 [4])?
A: The IC50 was 1 to 10 µM.

Q: What about the inhibition at 1 µM (ABHD6 [5]) of the same compound?
A: Its inhibition at 1 µM is no less than 75%.
